Source: the supplement of paper PMC10307832

How the values were obtained:
Experiment in all cases: relative viability (nuclei count vs DMSO), 5 days (fraction); higher = more cells survive
[1] = compound: C[C@]12O[C@H](C[C@]1(O)CO)n1c3ccccc3c3c4c(c5c6ccccc6n2c5c31)CNC4=O [Lestaurtinib] + Nc1nc2[nH]cc(CCc3ccc(C(=O)N[C@@H](CCC(=O)O)C(=O)O)cc3)c2c(=O)[nH]1 [Pemetrexed] (partner 0.2 µM)
Method in brief: (§1)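 Relative viability is defined as nuclei in treated wells over nuclei in vehicle wells. Duplicate plates were run and medians reported. Lung cancer cell lines in 1536-well plates were dosed by pin tool one day after seeding, with one drug or with a fixed anchor-drug dose plus five library-drug doses (not always all listed) in √10 steps, and nuclei were counted after 5 days.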

[2] = compound: C[C@]12O[C@H](C[C@]1(O)CO)n1c3ccccc3c3c4c(c5c6ccccc6n2c5c31)CNC4=O [Lestaurtinib] + COc1cccc2cc(-c3nc([C@H]4CC[C@H](C(=O)O)CC4)n4ncnc(N)c34)[nH]c12 [OSI-027] (partner 0.5 µM)
Method in brief: as §1

[3] = compound: C1=CC(=CC=C1C2=CC(=C(S2)NC(=O)N)C(=O)N)F [TPCA-1] + C[C@]1(O)C[C@@H](c2nc(-c3ccc4ccc(-c5ccccc5)nc4c3)c3c(N)nccn32)C1 [Linsitinib] (partner 1 µM)
Method in brief: as §1

[4] = compound: C[C@]12O[C@H](C[C@]1(O)CO)n1c3ccccc3c3c4c(c5c6ccccc6n2c5c31)CNC4=O [Lestaurtinib] + NC(=O)Nc1cc(-c2cccc(F)c2)sc1C(=O)N[C@H]1CCCNC1 [AZD7762] (partner 0.2 µM)
Method in brief: as §1

| Cell Line | relative viability ([1]; first compound 0.005 µM) | relative viability ([1]; first compound 0.01581 µM) | relative viability ([1]; first compound 0.05 µM) | relative viability ([1]; first compound 0.1581 µM) | relative viability ([1]; first compound 0.5 µM) | relative viability ([2]; first compound 0.005 µM) | relative viability ([2]; first compound 0.01581 µM) | relative viability ([2]; first compound 0.05 µM) | relative viability ([2]; first compound 0.1581 µM) | relative viability ([2]; first compound 0.5 µM) | relative viability ([3]; first compound 0.04 µM) | relative viability ([3]; first compound 0.4 µM) | relative viability ([3]; first compound 1.265 µM) | relative viability ([3]; first compound 4 µM) | relative viability ([4]; first compound 0.005 µM) | relative viability ([4]; first compound 0.01581 µM) | relative viability ([4]; first compound 0.05 µM) | relative viability ([4]; first compound 0.1581 µM) | relative viability ([4]; first compound 0.5 µM) | relative viability ([3]; first compound 0.1265 µM) |
| --- | --- | --- | --- | --- | --- | --- | --- | --- | --- | --- | --- | --- | --- | --- | --- | --- | --- | --- | --- | --- |
| NCI-H1993 | 0.581 | 0.657 | 0.644 | 0.411 | 0.497 | 0.59 | 0.555 | 0.524 | 0.534 | 0.423 | 0.711 | 0.748 | 0.686 | 0.622 | 0.581 | 0.553 | 0.619 | 0.632 | 0.47 |  |
| LK-2 | 0.302 | 0.444 | 0.255 | 0.302 | 0.139 | 0.158 | 0.224 | 0.176 | 0.185 | 0.173 | 0.349 | 0.507 | 0.52 | 0.196 | 0.388 | 0.523 | 0.272 | 0.276 | 0.135 | 0.332 |
| HCC-78 | 0.9 | 0.918 | 0.851 | 1 | 0.903 | 0.34 | 0.417 | 0.323 | 0.381 | 0.29 | 0.555 | 0.506 | 0.413 | 0.399 | 0.555 | 0.662 | 0.517 | 0.516 | 0.333 | 0.429 |
| NCI-H2405 | 1.01 | 1.25 | 1.03 | 0.887 | 0.374 | 0.647 | 0.685 | 0.59 | 0.487 | 0.414 | 1.05 | 0.988 |  | 0.914 | 0.746 | 0.885 | 0.492 | 0.662 | 0.218 | 0.806 |
| HOP-62 | 0.269 | 0.322 | 0.309 | 0.339 | 0.22 | 0.936 | 0.958 | 0.498 | 0.643 | 0.415 | 0.96 | 0.921 | 1.12 | 0.973 | 0.56 | 0.657 | 0.323 | 0.609 | 0.313 | 0.676 |
| NCI-H650 | 0.938 | 1.01 | 0.557 | 0.573 | 0.33 | 0.536 | 0.6 | 0.441 | 0.364 | 0.313 | 1.08 | 0.89 | 0.382 | 0.465 | 0.939 | 1.07 | 0.706 | 0.687 | 0.302 | 0.755 |
| NCI-H358 | 0.177 | 0.164 | 0.174 | 0.136 | 0.158 | 0.658 | 0.629 | 0.285 | 0.232 | 0.0986 | 0.902 | 0.691 | 0.487 | 0.339 | 0.485 | 0.413 | 0.432 | 0.298 | 0.253 | 0.557 |
| BEN | 0.782 | 0.841 | 0.663 | 0.555 | 0.358 | 0.463 | 0.313 | 0.3 | 0.298 | 0.196 | 0.973 | 1 | 0.877 | 0.692 | 0.674 | 0.818 | 0.634 | 0.625 | 0.341 | 0.728 |
| NCI-H1755 | 0.478 | 0.463 | 0.41 | 0.36 | 0.353 | 0.814 | 0.706 | 0.471 | 0.406 | 0.338 | 0.978 | 1 | 1 | 0.852 | 0.437 | 0.401 | 0.492 | 0.344 | 0.25 | 0.941 |
| LC-2-ad | 0.258 | 0.277 | 0.252 | 0.258 | 0.186 | 0.892 | 0.783 | 0.506 | 0.483 | 0.304 | 0.92 | 0.833 | 0.807 | 0.331 | 0.892 | 0.908 | 0.558 | 0.409 | 0.225 | 0.71 |
| NCI-H1666 | 0.988 | 0.92 | 0.948 | 0.95 | 0.707 | 0.904 | 0.934 | 0.917 | 0.757 | 0.518 | 0.756 | 0.785 | 0.993 | 0.723 | 0.753 | 0.903 | 0.933 | 1.01 | 0.654 | 0.688 |
| 201T | 0.34 | 0.342 | 0.317 | 0.279 | 0.251 | 0.766 | 0.982 |  | 0.63 | 0.447 | 1.03 | 1.09 | 1.09 | 0.835 | 0.589 | 0.656 | 0.53 | 0.92 | 0.776 | 0.982 |
| NCI-H1395 | 0.788 | 1.03 | 0.559 | 0.775 | 0.379 | 0.546 | 0.655 | 0.5 | 0.482 | 0.374 | 1.55 | 1.07 | 0.959 | 0.884 | 0.385 | 0.405 | 0.407 | 0.384 | 0.325 | 0.954 |
| LU99A | 0.152 | 0.153 | 0.217 | 0.14 | 0.128 | 0.288 | 0.263 | 0.262 | 0.249 | 0.203 | 0.486 | 0.513 | 0.341 | 0.306 | 0.362 | 0.348 | 0.34 | 0.277 | 0.158 | 0.45 |
| NCI-H1437 | 0.274 | 0.305 | 0.293 | 0.23 | 0.238 | 0.885 | 0.949 | 0.952 | 0.747 | 0.698 | 1.17 | 1.02 | 0.926 | 0.754 | 1.13 | 1.2 | 0.941 | 1.12 | 0.945 | 0.936 |
| EKVX | 0.419 |  | 0.276 | 0.398 | 0.256 | 0.773 | 0.697 | 0.79 | 0.717 | 0.602 | 1.1 | 1.08 | 0.69 | 0.846 | 0.718 |  | 0.643 | 0.755 | 0.546 | 0.868 |
